Data from PubChem BioAssay (NCI).
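GI50 = concentration required for 50% inhibition of growth. Definition used: TGI = concentration required for complete inhibition of growth.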

How the values were obtained:
Test in all cases: growth of human tumour cells (NCI), 384-well format
LOX IMVI melanoma = tested on: LOX IMVI melanoma
SF-295 CNS = tested on: SF-295 CNS
UACC-62 melanoma = tested on: UACC-62 melanoma
OVCAR-4 ovarian = tested on: OVCAR-4 ovarian
MDA-MB-468 breast = tested on: MDA-MB-468 breast
SK-MEL-28 melanoma = tested on: SK-MEL-28 melanoma
HOP-92 NSCLC = tested on: HOP-92 NSCLC
RXF 393 renal = tested on: RXF 393 renal
IGROV1 ovarian = tested on: IGROV1 ovarian
786-0 renal = tested on: 786-0 renal
HCC-2998 colon = tested on: HCC-2998 colon
NCI-H522 lung = tested on: NCI-H522 lung
COLO 205 colon = tested on: COLO 205 colon

| Compound | GI50 (LOX IMVI melanoma) | TGI (LOX IMVI melanoma) | GI50 (SF-295 CNS) | TGI (SF-295 CNS) | GI50 (UACC-62 melanoma) | TGI (UACC-62 melanoma) | GI50 (OVCAR-4 ovarian) | TGI (OVCAR-4 ovarian) | GI50 (MDA-MB-468 breast) | TGI (MDA-MB-468 breast) | GI50 (SK-MEL-28 melanoma) | TGI (SK-MEL-28 melanoma) | GI50 (HOP-92 NSCLC) | TGI (HOP-92 NSCLC) | GI50 (RXF 393 renal) | TGI (RXF 393 renal) | GI50 (IGROV1 ovarian) | TGI (IGROV1 ovarian) | GI50 (786-0 renal) | TGI (786-0 renal) | other results |
| --- | --- | --- | --- | --- | --- | --- | --- | --- | --- | --- | --- | --- | --- | --- | --- | --- | --- | --- | --- | --- | --- |
| Cc1c(Br)c(Br)c2c3c1nc(N1CCNCC1)n3CCC2 | 1.49 µM | 2.84 µM | 1.69 µM | 3.1 µM | 1.48 µM | 2.82 µM | 1.77 µM | 3.51 µM | 1.15 µM | 2.37 µM | 1.59 µM | 2.95 µM | 1.75 µM | 3.3 µM | 1.39 µM | 2.68 µM | 1.31 µM | 2.61 µM | 1.55 µM | 2.9 µM | GI50 (HCC-2998 colon): 0.976 µM; TGI (HCC-2998 colon): 2.23 µM; GI50 (NCI-H522 lung): 0.347 µM; TGI (NCI-H522 lung): 1.8 µM; GI50 (COLO 205 colon): 1.8 µM; TGI (COLO 205 colon): 3.21 µM |
| CN1C(=O)[C@@H](CC2CCCC2)N(C2CCCC2)c2nc(Nc3cc(Cl)c(O)c(Cl)c3)ncc21 | 6.14 µM | 19.5 µM | 13 µM | 29.3 µM | 8.84 µM | 23.2 µM | 5.33 µM | 37.1 µM | 2.89 µM | 8.38 µM | 4.79 µM | > 100 µM | 6.46 µM | 42 µM | 2.45 µM | 7.68 µM | 9.94 µM | 39.6 µM | 8.07 µM | 24.3 µM | GI50 (HCC-2998 colon): 5.31 µM; TGI (HCC-2998 colon): 20.5 µM; GI50 (NCI-H522 lung): 2.6 µM; TGI (NCI-H522 lung): 8.91 µM; GI50 (COLO 205 colon): 27.8 µM; TGI (COLO 205 colon): 81.8 µM |
